Test results as given in patent US9796711B2, “Substituted pyrazolo[3,4-b]pyridin-6-carboxylic acids and method of use” (AbbVie S.àr.l., priority 2015, dated 2017).
pEC50: −log10 of the molar value.

Legend:
ΔF508-CFTR [1] = molecular target: T1, ΔF508-CFTR (Homo sapiens, UniProt P13569, DEL508-508); test: CFTR cell surface levels using HRP-tagged ΔF508-CFTR expressing CFBE cells, in the presence of a co-corrector; assay type: cell-based; details: HRP-tagged ΔF508-CFTR expressing CFBE cells, in the presence of 3 μM co-corrector; for pEC50: read-out: EC50
T1 construct: host or cells: CFBE41o-, doxycycline-inducible
T1 sequence (P13569 with tags, fused parts or gaps DEL508-508): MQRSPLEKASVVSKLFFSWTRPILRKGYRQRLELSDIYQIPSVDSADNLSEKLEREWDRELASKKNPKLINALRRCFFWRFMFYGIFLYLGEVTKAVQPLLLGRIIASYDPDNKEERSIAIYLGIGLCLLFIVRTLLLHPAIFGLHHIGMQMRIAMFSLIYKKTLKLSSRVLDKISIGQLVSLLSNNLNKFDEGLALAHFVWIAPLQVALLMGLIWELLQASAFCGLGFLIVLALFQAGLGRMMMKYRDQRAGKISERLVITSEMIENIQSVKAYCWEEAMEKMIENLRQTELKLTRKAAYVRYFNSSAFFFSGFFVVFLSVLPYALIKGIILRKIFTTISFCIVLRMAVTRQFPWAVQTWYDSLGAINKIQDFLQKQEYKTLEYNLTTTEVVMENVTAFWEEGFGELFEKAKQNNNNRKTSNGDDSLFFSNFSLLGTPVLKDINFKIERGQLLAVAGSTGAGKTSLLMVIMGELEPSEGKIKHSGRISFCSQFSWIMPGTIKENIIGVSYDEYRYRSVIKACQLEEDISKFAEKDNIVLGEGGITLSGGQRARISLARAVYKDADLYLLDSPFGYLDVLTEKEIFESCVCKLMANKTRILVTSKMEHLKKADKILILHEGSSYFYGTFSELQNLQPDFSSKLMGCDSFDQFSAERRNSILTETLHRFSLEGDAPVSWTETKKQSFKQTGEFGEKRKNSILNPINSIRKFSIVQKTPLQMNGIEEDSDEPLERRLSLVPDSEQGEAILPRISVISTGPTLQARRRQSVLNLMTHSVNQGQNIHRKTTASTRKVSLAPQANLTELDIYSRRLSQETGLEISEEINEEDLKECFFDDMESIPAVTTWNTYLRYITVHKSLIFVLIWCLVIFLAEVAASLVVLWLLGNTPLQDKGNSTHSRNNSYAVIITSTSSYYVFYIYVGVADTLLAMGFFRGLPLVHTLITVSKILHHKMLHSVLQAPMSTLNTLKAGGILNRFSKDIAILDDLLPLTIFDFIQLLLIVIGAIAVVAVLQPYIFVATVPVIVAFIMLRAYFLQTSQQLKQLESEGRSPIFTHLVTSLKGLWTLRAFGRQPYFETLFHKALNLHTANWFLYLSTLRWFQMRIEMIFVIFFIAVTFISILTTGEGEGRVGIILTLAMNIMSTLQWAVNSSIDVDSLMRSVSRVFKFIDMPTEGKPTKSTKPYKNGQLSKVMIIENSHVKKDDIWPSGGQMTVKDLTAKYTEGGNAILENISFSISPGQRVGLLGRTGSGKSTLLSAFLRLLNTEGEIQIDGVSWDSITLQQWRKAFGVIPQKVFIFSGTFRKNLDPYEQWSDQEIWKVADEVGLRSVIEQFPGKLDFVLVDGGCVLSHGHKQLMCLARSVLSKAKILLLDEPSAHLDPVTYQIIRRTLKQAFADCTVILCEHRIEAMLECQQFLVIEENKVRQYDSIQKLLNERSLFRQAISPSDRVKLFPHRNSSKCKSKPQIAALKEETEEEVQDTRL
Procedure, shortened: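 Cells were seeded with 0.5 μg/mL doxycycline and held 68 h at 37 °C. Test compounds plus 3 μM co-corrector (final 0.1% DMSO) were then added for 20 h at 33 °C. Washed cells received HRP substrate, and luminescence was normalized between DMSO and 3 μM co-corrector controls.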

ΔF508-CFTR [2] = molecular target: T1, ΔF508-CFTR; test: CFTR cell surface levels using HRP-tagged ΔF508-CFTR expressing CFBE cells, intrinsic corrector capacity; assay type: cell-based; details: HRP-tagged ΔF508-CFTR expressing CFBE cells, intrinsic corrector capacity (no co-corrector), 33° C., 20 hours; for pEC50: read-out: EC50
Procedure, shortened: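 Here the cells express ΔF508-CFTR with horseradish peroxidase inserted in extracellular loop 4, so only rescued channel at the surface gives luminescent signal. Compounds act on their own, 20 h at the reduced temperature of 33 °C; values are percent activity relative to DMSO and a 3 μM corrector.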

SMILES | % Activation (ΔF508-CFTR [1]) | pEC50 (ΔF508-CFTR [1]) | % Activation (ΔF508-CFTR [2]) | pEC50 (ΔF508-CFTR [2])
CCOCC1(F)CCCN(c2cc(C(=O)O)nc3c2c(C2CCC2)nn3-c2ccccc2)C1 (stereo not shown) [compound 460, 3-cyclobutyl-4-[3-(ethoxymethyl)-3-fluoropiperidin-1-yl]-1-phenyl-1H-pyrazolo[3,4-b]pyridine-6-carboxylic acid] | 322.2% | 6.48 | 138.15% | 6.19
CCOCC1(F)CCN(c2cc(C(=O)O)nc3c2c(C2CCC2)nn3-c2ccccc2)CC1 [compound 461, 3-cyclobutyl-4-[4-(ethoxymethyl)-4-fluoropiperidin-1-yl]-1-phenyl-1H-pyrazolo[3,4-b]pyridine-6-carboxylic acid] | 328.05% | 6.46 | 158.55% | 6.09
COCCOCC1(F)CCCN(c2cc(C(=O)O)nc3c2c(C2CCC2)nn3-c2ccccc2)C1 (stereo not shown) [compound 462, 3-cyclobutyl-4-{3-fluoro-3-[(2-methoxyethoxy)methyl]piperidin-1-yl}-1-phenyl-1H-pyrazolo[3,4-b]pyridine-6-carboxylic acid] | 316.85% | 6.50 | 156.2% | 6.31
COCC1(F)CCN(c2cc(C(=O)O)nc3c2c(C2CCC2)nn3-c2ccccc2)CC1 [compound 463, 3-cyclobutyl-4-[4-fluoro-4-(methoxymethyl)piperidin-1-yl]-1-phenyl-1H-pyrazolo[3,4-b]pyridine-6-carboxylic acid] | 341.85% | 6.43 | 157.75% | 6.16
O=C(O)c1cc(N2CC[C@@H](O)[C@H](F)C2)c2c(C3CCC3)nn(-c3ccccc3)c2n1 [compound 464, 3-cyclobutyl-4-[(3R,4R)-3-fluoro-4-hydroxypiperidin-1-yl]-1-phenyl-1H-pyrazolo[3,4-b]pyridine-6-carboxylic acid] | 328.25% | 6.39 | 163.6% | 5.94
O=C(O)c1cc(N2CC[C@@H](F)[C@H](O)C2)c2c(C3CCC3)nn(-c3ccccc3)c2n1 [compound 465, 3-cyclobutyl-4-[(3R,4R)-4-fluoro-3-hydroxypiperidin-1-yl]-1-phenyl-1H-pyrazolo[3,4-b]pyridine-6-carboxylic acid] | 244.6% | 6.15 | 91.04% | 5.73
O=C(O)c1cc(N2CC(N3CCCCC3)C2)c2c(C3CCC3)nn(-c3ccccc3)c2n1 [compound 466, 3-cyclobutyl-1-phenyl-4-[3-(piperidin-1-yl)azetidin-1-yl]-1H-pyrazolo[3,4-b]pyridine-6-carboxylic acid] | 271.1% | 5.89 | 116.25% | 5.63
CS(=O)(=O)[C@@H]1CCN(c2cc(C(=O)O)nc3c2c(C2CCC2)nn3-c2ccccc2)C1 [compound 467, 3-cyclobutyl-4-[(3R)-3-(methanesulfonyl)pyrrolidin-1-yl]-1-phenyl-1H-pyrazolo[3,4-b]pyridine-6-carboxylic acid] | 274.35% | 5.48 | 97.95% | 5.48
COC1CCCN(c2cc(C(=O)O)nc3c2c(C2CCC2)nn3-c2ccccc2)C1 (stereo not shown) [compound 468, 3-cyclobutyl-4-(3-methoxypiperidin-1-yl)-1-phenyl-1H-pyrazolo[3,4-b]pyridine-6-carboxylic acid] | 297.2% | 6.43 | 120.3% | 6.21
CC(C)N1CNC(=O)C12CCN(c1cc(C(=O)O)nc3c1c(C1CCC1)nn3-c1ccccc1)CC2 [compound 469, 3-cyclobutyl-4-[4-oxo-1-(propan-2-yl)-1,3,8-triazaspiro[4.5]decan-8-yl]-1-phenyl-1H-pyrazolo[3,4-b]pyridine-6-carboxylic acid] | 360.3% | 6.15 | 198.95% | 5.95
